# From ChEMBL document CHEMBL4421731, “Small molecules inhibiting oncoprotein Myc” (2016)
# Activity calls are given as the source filed them. No cut-off for these calls is given here.
# Assays:
# [1] = Toxicity in athymic nude mouse xenografted with human SK-MEL-103 cells assessed as induction of weight loss at 50 mg/kg, ip dosed daily for 12 days dosed via Captisol formulation (reference value: 100 +/- 10%%); format: organism-based; conditions: in vivo, 288 h
# [2] = Intrinsic clearance in human liver microsomes at 1 uM in presence of NADPH by LC-MS/MS analysis; format: ADME, Microsome
# [3] = Toxicity in athymic nude mouse xenografted with human SK-MEL-103 cells assessed as induction of weight loss at 50 mg/kg, ip dosed daily for 5 days dosed via Captisol formulation (reference value: 100 +/- 10%%); format: organism-based; conditions: in vivo, 120 h
# [4] = Intrinsic clearance in mouse liver microsomes at 1 uM in presence of NADPH by LC-MS/MS analysis; format: ADME, Microsome
# [5] = test system: SK-MEL-103; assay: Antitumor activity against human SK-MEL-103 cells xenografted in athymic nude mouse assessed as inhibition of tumor growth at 50 mg/kg, ip dosed daily; format: functional, organism-based
# [6] = molecular target: Myc proto-oncogene protein (Homo sapiens) (UniProt P01106); assay: Inhibition of C-Myc in human melanoma (#9) cells assessed as reduction in lactate levels by [13C]-glucose labeling based assay; format: cell-based
# Chain of Myc proto-oncogene protein (Homo sapiens) (P01106 whole entry): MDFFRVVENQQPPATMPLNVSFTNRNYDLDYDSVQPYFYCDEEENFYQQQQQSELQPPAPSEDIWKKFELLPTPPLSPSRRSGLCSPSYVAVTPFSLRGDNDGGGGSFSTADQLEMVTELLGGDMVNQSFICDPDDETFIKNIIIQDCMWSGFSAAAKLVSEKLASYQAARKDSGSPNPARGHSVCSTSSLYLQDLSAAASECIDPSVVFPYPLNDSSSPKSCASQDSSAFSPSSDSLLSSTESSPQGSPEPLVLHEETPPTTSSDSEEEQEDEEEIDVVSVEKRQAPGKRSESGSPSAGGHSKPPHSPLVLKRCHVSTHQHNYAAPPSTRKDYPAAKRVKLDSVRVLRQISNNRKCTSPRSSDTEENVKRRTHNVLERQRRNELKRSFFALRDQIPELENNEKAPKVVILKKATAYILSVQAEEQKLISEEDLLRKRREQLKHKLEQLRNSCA
# [7] = Toxicity in athymic nude mouse xenografted with human SK-MEL-103 cells assessed as induction of sickness at 50 mg/kg, ip dosed daily for 14 days dosed via Captisol formulation and measured on day 16; format: organism-based; conditions: in vivo, 336 h
# [8] = Toxicity in athymic nude mouse xenografted with human SK-MEL-103 cells assessed as induction of weight loss at 50 mg/kg, ip dosed daily for 10 days dosed via Captisol formulation (reference value: 100 +/- 10%%); format: organism-based; conditions: in vivo, 240 h
# [9] = Toxicity in mouse xenografted with human melanoma cells measured up to 8 days; conditions: 192 h
# [10] = test system: SK-MEL-103; assay: Antitumor activity against human SK-MEL-103 cells xenografted in athymic nude mouse assessed as initial tumor level at 50 mg/kg, ip dosed daily for 14 days dosed via Captisol formulation (reference value: 80%); format: functional
# [11] = molecular target: Myc proto-oncogene protein (Homo sapiens) (UniProt P01106); assay: Inhibition of C-Myc in human melanoma (#9) cells assessed as reduction in pyruvate levels by [13C]-glucose labeling based assay; format: cell-based
# [12] = Toxicity in athymic nude mouse xenografted with human SK-MEL-103 cells assessed as induction of weight loss at 50 mg/kg, ip dosed daily for 1 days dosed via Captisol formulation (reference value: 100 +/- 10%%); format: organism-based; conditions: in vivo, 24 h
# [13] = molecular target: Myc proto-oncogene protein (Homo sapiens) (UniProt P01106); assay: Inhibition of C-Myc in human melanoma (#9) cells assessed as reduction in serine levels by [13C]-glucose labeling based assay; format: cell-based
# [14] = Toxicity in athymic nude mouse xenografted with human SK-MEL-103 cells assessed as induction of weight loss at 50 mg/kg, ip dosed daily for 14 days dosed via Captisol formulation; format: organism-based; conditions: in vivo, 336 h
# [15] = Toxicity in athymic nude mouse xenografted with human SK-MEL-103 cells assessed as induction of weight loss at 50 mg/kg, ip dosed daily for 14 days dosed via Captisol formulation (reference value: 100 +/- 10%%); format: organism-based; conditions: in vivo, 336 h
# [16] = molecular target: Myc proto-oncogene protein (Homo sapiens) (UniProt P01106); assay: Inhibition of Myc in human melanoma cells assessed as increase in Myc-repressed p27kip1 gene expression; format: cell-based
# [17] = Toxicity in athymic nude mouse xenografted with human SK-MEL-103 cells assessed as induction of weight loss at 50 mg/kg, ip dosed daily for 3 days dosed via Captisol formulation (reference value: 100 +/- 10%%); format: organism-based; conditions: in vivo, 72 h
# [18] = Toxicity in athymic nude mouse xenografted with human SK-MEL-103 cells assessed as induction of distress at 50 mg/kg, ip dosed daily for 14 days dosed via Captisol formulation and measured on day 16; format: organism-based; conditions: in vivo, 336 h
# [19] = molecular target: Myc proto-oncogene protein (Homo sapiens) (UniProt P01106); assay: Inhibition of C-Myc in human SK-MEL-103 cells assessed as reduction in MYC-dependent transcriptional activation incubated for 48 hrs by microarray relative to control; format: cell-based
# [20] = molecular target: Myc proto-oncogene protein (Homo sapiens) (UniProt P01106); assay: Inhibition of C-Myc in human melanoma (#9) cells assessed as reduction in fumarate levels by [13C]-glucose labeling based assay; format: cell-based
# [21] = test system: SK-MEL-103; assay: Antitumor activity against human SK-MEL-103 cells xenografted in athymic nude mouse assessed as improvement in mouse survival at 50 mg/kg, ip dosed daily for 4 days dosed via Captisol formulation; format: functional, organism-based
# [22] = molecular target: Myc proto-oncogene protein (Homo sapiens) (UniProt P01106); assay: Inhibition of Myc in human melanoma cells assessed as reduction in Myc-transactivated thymidylate synthase gene expression; format: cell-based
# [23] = test system: SK-MEL-103; assay: Antitumor activity against human SK-MEL-103 cells xenografted in athymic nude mouse assessed as improvement in mouse survival at 50 mg/kg, ip dosed daily for 14 days dosed via Captisol formulation; format: functional, organism-based
# [24] = test system: HO15.19; assay: Induction of cell cycle arrest in rat HO15.19 cells assessed as accumulation at G0/G1 phase at 3 uM by flow cytometry (reference value: 50.76%); format: cell-based; conditions: ho15.19, 3 µM
# [25] = molecular target: Myc proto-oncogene protein (Homo sapiens) (UniProt P01106); assay: Inhibition of C-Myc (unknown origin) expressed in rat HO15.19 cells assessed as accumulation at G0/G1 phase at 3 uM by flow cytometry (reference value: 35.43%); format: cell-based; parameters: scale not given: the % may be the effect or the level left
# [26] = test system: Melanoma cell line; assay: Antitumor activity against human melanoma cells xenografted in mouse assessed as inhibition of tumor growth measured up to 8 days; format: functional, cell-based
smiles,measurement,setting,value
CCN(CC)c1ccc(/C=N/NC(=O)Cn2nnc(-c3ccccc3)n2)c(O)c1,Activity,[1],113.3%
same,intrinsic clearance,[2],110 µL/min/mg
same,Activity,[3],103.8%
same,intrinsic clearance,[4],270 µL/min/mg
same,TGI,[5],Active
same,inhibition,[6],Active
same,Activity,[7],Non-Toxic
same,Activity,[8],111.4%
same,Activity,[9],Non-Toxic
same,Activity,[10],<50%
same,inhibition,[11],Active
same,Activity,[12],100%
same,inhibition,[13],Active
same,Activity,[14],Non-Toxic
same,Activity,[15],114.5%
same,inhibition,[16],Active
same,Activity,[17],103.3%
same,Activity,[18],Non-Toxic
same,inhibition,[19],Active
same,inhibition,[20],Active
same,TGI,[21],inactive
same,inhibition,[22],Active
same,Activity,[23],Active
same,Activity,[24],54.9%
same,Activity,[25],49.7%
same,TGI,[26],Active
